Assay [1] has as its system Huh7 cells. The assay can be described thus: Surface binding of lectin by fluorescence microscopy. As to conditions: Huh7, 10 μM, 48 h. Format: cell-based, human.
Assay [2] deals with PANC-1 cells. Nature of the assay: Anti-proliferative activity assay (MTT). Format: cell-based, human. The conditions noted are these: 72 h. On the procedure: (§1) Human liver cancer HepG2 cells and Huh7 cells, breast cancer MDA-MB-231 cells, pancreatic cancer PANC-1 cells, and non-small cell lung (NSCL) cancer H1975 cells were maintained in Dulbecco's Modified Eagle Medium supplemented containing 10% fetal bovine serum (FBS), 100 units/ml penicillin and […] streptomycin in 37° C. incubator with 5% CO2.
(§2) Anti-proliferative activity of HepG2, Huh7 or PANC-1 cells was determined by 3-(4,5-dimethylthiazol-2-yl)-2,5-diphenyltetrazolium bromide (MTT) assay, while that of H1975 or MDA-MB-231 cells was determined by luminescent assay with the aid of commercial kit CellTiter-Glo® (Promega).
(§3) Cancer cells including HepG2, Huh7 and PANC-1 cells were respectively seeded at 10^4, 4×10^3, and 5×10^3 cells/well in 96-well plates and maintained for 14-16 hours. Cells were treated with dimethylsulfoxide (DMSO) or test compounds in varied concentrations for 72 h. Cells were then washed with PBS twice, added a medium containing 3-(4,5-dimethylthiazol-2-yl)-2,5-diphenyltetrazolium bromide (MTT) at a final concentration of 0.5 mg/mL, and incubated for 4 h at 37° C. in a humidified incubator containing 5% CO2 in air. Cells having functional succinate dehydrogenase of mithchondria would convert MTT to formazan. Then, the medium was replaced with 100 μL of DMSO for 30 min at room temperature, and the 96-well plate was read by an ELISA reader at 550 nm to get the absorbance density values. The IC50 values of death cell lines were calculated accordingly.

For assay [3], the system named is HepG2 cells. Nature of the assay: Anti-proliferative activity assay (MTT). Format: cell-based, human. The conditions noted are these: 72 h. On the procedure:
as §1, §2, §3

The test system of assay [4] is Huh7 cells. The assay can be described thus: Anti-proliferative activity assay (MTT). Format: cell-based, human. The conditions noted are these: 72 h. As for the experimental part: as §1, §2, §3
Assay [5] has as its target human Golgi α-mannosidase II (α-hGMII) (Homo sapiens (Human), UniProt Q16706). Nature of the assay: Golgi α-mannosidase II (α-hGMII) activity assay, 4-MU-α-D-mannopyranoside substrate. Format: biochemical. The conditions noted are these: pH 7.0, 37° C., 2 h. As for the experimental part: (§4) Compounds were diluted to give the final concentration of 100 μM and mixed with 4-MU-α-D-mannopyranoside as substrate and human Golgi α-mannosidase II in phosphate buffer (0.1 M Sodium phosphate dibasic, pH 7.0) or human lysosomal α-mannosidase in citric phosphate buffer (0.1 M Sodium phosphate monobasic monohydrate, 0.5 mM citric acid monohydrate, pH 4.6). The assay was carried out at 37° C. for a certain time (1 h for α-hLM, 2 h for α-hGMII). Stop solution (0.5 M K2CO3(aq), pH 10.8) was then added to the reactions and the fluorescence was determined at 355 nm excitation and 460 nm emission (SpectraMax M5, Molecular Devices). Inhibition was performed as relative enzyme activity to control. The active compounds were selected for libraries preparation and further tested at lower concentration to determine their IC50 values. The assays performed in 384-wells of the microtiter plates.

In assay [6] the test system is HepG2 cells. The assay can be described thus: Surface binding of lectin by fluorescence microscopy. The conditions noted are these: HepG2, 10 μM, 48 h. The class given is cell-based, human.
The target in assay [7] is human lysosomal α-mannosidase (α-hLM) (Homo sapiens (Human), UniProt O00754). The assay can be described thus: α-Mannosidase (α-hLM) activity assay, 4-MU-α-D-mannopyranoside substrate. As to conditions: pH 4.6, 37° C., 1 h. Format: biochemical. On the procedure: as §4
The test system of assay [8] is MDA-MB-231 cells. The assay can be described thus: Anti-proliferative activity assay (CellTiter-Glo). As to conditions: 48 h. Format: cell-based, human. As for the experimental part: as §1, §2
(§5) For H1975 and MDA-MB-231, cells were respectively seeded at 5×10^3 cells/well in 96-well plates and maintained for 14-16 hours. Cells were treated with dimethylsulfoxide (DMSO) or test compounds in varied concentrations for 48 h. Cell viability was monitored using Cell-TiterGlo (Promega), a kit that measures the quantity of ATP present in the cell culture, an indicator of metabolically active cells. The IC50 values of death cell lines were calculated accordingly.

Assay [9] has as its system H1975 cells. Nature of the assay: Anti-proliferative activity assay (CellTiter-Glo). The conditions noted are these: 48 h. Format: cell-based, human. As for the experimental part: as §1, §2, §5
(In general: Cellular ATP, detected with luciferase, serves as a proxy for viable cell number.)

Assay [10] deals with PANC-1 cells. Nature of the assay: Transwell invasion assay. The class given is cell-based, human. As to conditions: PANC-1, transwell. On the procedure:
(§6) Chemotaxis experiments with human HepG2Huh7, or PANC-1 cells were assayed by using transwells (Millipore). The cells to be analyzed (5×10^4 cells/well) were seeded in the upper chambers of the 24-well plate in 400 μL serum-free medium. FBS (10%) was used as the chemoattractant with or without different concentrations of the test compound (e.g., ACK900, ACK901, ACK902) in the lower chamber, and the plate was incubated under standard conditions. After incubation for 18 hours, the media in the upper chambers were aspirated and washed with phosphate-buffered saline (PBS) twice. Both non-migrated and migrated cells were fixed with 4% paraformaldehyde (PFA) for 30 minutes at room temperature, stained with 2% crystal violet solution. The non-invading cells were removed from the upper surface of the insert membrane with a cotton swab. The images were taken using an imaging reader (Cytation 5, BioTek, VT, U.S.A.) and analyzed using NIH ImageJ software. Percent in the results represent percent of initial number of cells in the migrating and nonmigrating Cell fractions.

Assay [11] concerns HepG2 cells. The assay can be described thus: Transwell invasion assay. Format: cell-based, human. As for the experimental part:
as §6

The subject of assay [12] is Huh7 cells. Nature of the assay: Transwell invasion assay. Format: cell-based, human. As for the experimental part: as §6

Structures are written as SMILES.

Sequence of human Golgi α-mannosidase II (α-hGMII) (Q16706 whole entry): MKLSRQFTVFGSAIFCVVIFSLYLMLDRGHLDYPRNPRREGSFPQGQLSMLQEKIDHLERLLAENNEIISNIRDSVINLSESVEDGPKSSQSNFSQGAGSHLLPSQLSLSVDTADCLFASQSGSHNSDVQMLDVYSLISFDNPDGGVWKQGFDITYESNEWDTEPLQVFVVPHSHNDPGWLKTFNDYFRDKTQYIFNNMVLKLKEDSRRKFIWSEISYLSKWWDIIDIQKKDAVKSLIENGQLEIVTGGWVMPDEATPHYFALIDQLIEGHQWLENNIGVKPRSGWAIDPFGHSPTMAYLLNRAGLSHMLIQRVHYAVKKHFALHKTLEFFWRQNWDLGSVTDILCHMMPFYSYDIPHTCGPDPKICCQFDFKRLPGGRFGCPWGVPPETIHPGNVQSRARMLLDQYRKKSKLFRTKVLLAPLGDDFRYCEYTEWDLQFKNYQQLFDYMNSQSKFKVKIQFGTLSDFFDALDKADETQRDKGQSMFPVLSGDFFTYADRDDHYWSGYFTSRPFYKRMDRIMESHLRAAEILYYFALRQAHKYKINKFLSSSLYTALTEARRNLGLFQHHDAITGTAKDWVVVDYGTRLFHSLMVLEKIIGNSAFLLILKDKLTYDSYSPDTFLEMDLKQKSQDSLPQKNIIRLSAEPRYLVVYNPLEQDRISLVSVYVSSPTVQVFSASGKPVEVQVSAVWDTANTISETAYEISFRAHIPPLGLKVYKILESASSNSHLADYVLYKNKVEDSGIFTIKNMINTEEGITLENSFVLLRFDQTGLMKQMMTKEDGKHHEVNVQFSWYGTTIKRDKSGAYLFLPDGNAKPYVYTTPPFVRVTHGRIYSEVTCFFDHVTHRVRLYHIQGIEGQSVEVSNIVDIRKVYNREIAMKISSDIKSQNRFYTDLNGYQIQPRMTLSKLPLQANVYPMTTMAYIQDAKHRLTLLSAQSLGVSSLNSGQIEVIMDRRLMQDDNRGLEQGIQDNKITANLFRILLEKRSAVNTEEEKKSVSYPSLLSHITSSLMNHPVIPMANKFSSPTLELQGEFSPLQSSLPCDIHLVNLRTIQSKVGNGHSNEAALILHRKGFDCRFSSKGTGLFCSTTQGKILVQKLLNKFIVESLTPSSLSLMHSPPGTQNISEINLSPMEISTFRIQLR
Sequence of human lysosomal α-mannosidase (α-hLM) (O00754 50-1011): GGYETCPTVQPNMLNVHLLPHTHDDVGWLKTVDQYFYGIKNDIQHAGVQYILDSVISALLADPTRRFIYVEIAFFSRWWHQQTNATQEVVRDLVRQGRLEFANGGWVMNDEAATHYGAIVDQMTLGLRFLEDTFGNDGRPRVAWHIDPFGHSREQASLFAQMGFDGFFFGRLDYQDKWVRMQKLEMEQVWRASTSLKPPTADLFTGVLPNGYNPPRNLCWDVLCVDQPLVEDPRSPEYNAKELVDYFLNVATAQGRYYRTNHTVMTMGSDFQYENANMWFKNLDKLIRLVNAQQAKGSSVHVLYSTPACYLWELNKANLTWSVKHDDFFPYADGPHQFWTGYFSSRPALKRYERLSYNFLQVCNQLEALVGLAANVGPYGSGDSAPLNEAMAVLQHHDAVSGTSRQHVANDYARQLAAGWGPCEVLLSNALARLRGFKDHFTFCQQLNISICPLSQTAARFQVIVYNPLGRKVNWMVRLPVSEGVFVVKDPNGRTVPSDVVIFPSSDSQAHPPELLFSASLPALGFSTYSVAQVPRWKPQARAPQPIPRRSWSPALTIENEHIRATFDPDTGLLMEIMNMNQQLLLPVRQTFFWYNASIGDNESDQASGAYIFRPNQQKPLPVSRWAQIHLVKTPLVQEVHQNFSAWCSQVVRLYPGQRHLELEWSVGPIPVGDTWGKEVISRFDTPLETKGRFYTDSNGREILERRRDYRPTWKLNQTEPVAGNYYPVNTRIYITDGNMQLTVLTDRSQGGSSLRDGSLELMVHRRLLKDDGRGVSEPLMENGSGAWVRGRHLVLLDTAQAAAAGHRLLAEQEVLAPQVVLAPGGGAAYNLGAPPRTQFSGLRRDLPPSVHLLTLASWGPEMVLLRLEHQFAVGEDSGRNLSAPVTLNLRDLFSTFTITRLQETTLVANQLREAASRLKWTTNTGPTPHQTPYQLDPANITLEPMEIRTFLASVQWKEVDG

The IC50 is the point on the concentration scale where inhibition reaches its midpoint. Lower therefore signals greater potency in that assay. With `CCC[C@H]1CC[C@H](c2ccc(NC(=S)NC[C@@H]3[C@@H](O)[C@@H](O)[C@H]4[C@H](O)CCCN43)cc2)CC1` [ACK900], the “surface binding of Concanavalin A (ConA)” value in [1] and in assay [6] was “markedly increased” in each case. In addition, the “surface binding of galectin-1 (Gal1)” value in assay [1] and in [6] was “substantially decreased” each time. Besides, the IC50 in assay [2] came to 14.5 µM; in [3], 5.9 µM; in assay [4], 7.8 µM; in assay [5], 0.1 µM; in [7], 14 µM; in assay [8] it was 4.6 µM. This compound also showed an IC50 in assay [9] of 13.9 µM. In addition, the invasive capability result in assay [10], in assay [11] and in assay [12] was “remarkably decreased” in each case.

The values are drawn from patent publication US20240190866A1, “POLYHYDROXYLATED INDOLIZIDINE AND PYRROLIZIDINE DERIVATIVES AND USES THEREOF” (Academia Sinica, priority 2021, published 2024).
